{
  "source": "patent US11014896B2",
  "about": "“TRPA1 and TRPV4 inhibitors and methods of using the same for organ-specific inflammation and itch” (Duke University, priority 2014, dated 2021)",
  "key": {"[1]": {"assay": "UVB-induced nocifensive behavior after topical GSK205 (Hargreaves' test, von Frey hair)", "format": "in vivo, mouse", "protocol": "Behavioral tests were performed to evaluate the decrease in withdrawal thresholds in response to mechanical von Frey hair or thermal stimuli applied to hind paws. […]. These withdrawal thresholds were ascertained before and after UV exposure. Mice were exposed using a Bio Rad Gel Doc 2000 UV transilluminator (302 nm) for 5 minutes with an exposure of 600 mJ/cm^2, 3-5 days after the last application of tamoxifen/oil.\n(§1) GSK205 topical treatment: A viscous solution of 68% EtOH/5% glycerol plus 1 mM or 5 mM GSK205 (none for control) was applied to hindpaws by rubbing in 20 μL, applied at time-points 1 hour and again 10 min before UV exposure.\nBehavioral tests were performed to evaluate the decrease in withdrawal thresholds in response to mechanical or thermal stimuli applied to hind paws. These withdrawal thresholds were ascertained before and after UVB exposure. Mice were confined by plexi-glass enclosures on top of 25×26 cm Bio Rad Gel Doc 2000 UV transilluminator (302 nm), and otherwise allowed to openly explore this environment. UV-exposure lasted for 5 minutes with an exposure of 600 mJ/cm^2.\nHindpaw mechanical withdrawal thresholds were determined by the automated von Frey hair method, using a 0.5 mm diameter stainless steel filament, part of an automated plantar touch stimulator (Ugo Basile, Modena, Italy). Relevant detail included pre-test acclimatization in a quiet room for 30 min, conducting the test at the same time of day and blinded observers. The stimulus was delivered to the hindpaw, automatically discontinued upon withdrawal, and its intensity recorded automatically. 6-8 trials per animal were conducted, with equal exposure of both hindpaws, leading to an average withdrawal threshold. Results are reported as […], which was calculated by subtracting post-treatment from pre-treatment measurements, expressed as % or relative to 1.0.\nHindpaw thermal (hot) withdrawal thresholds were determined by the well-established Hargreaves' method, using an infra-red thermal stimulation device that delivers the stimulus from underneath the hindpaw combined with automatic shut-off upon withdrawal (Ugo Basile). Stimulation and measurements were conducted as described for von Frey hair testing. A cutoff of 20 sec was set to prevent tissue damage."}, "[2]": {"molecular_target": "TRPV4 (Homo sapiens, UniProt Q9HBA0)", "sequence (Q9HBA0 whole entry, species assumed)": "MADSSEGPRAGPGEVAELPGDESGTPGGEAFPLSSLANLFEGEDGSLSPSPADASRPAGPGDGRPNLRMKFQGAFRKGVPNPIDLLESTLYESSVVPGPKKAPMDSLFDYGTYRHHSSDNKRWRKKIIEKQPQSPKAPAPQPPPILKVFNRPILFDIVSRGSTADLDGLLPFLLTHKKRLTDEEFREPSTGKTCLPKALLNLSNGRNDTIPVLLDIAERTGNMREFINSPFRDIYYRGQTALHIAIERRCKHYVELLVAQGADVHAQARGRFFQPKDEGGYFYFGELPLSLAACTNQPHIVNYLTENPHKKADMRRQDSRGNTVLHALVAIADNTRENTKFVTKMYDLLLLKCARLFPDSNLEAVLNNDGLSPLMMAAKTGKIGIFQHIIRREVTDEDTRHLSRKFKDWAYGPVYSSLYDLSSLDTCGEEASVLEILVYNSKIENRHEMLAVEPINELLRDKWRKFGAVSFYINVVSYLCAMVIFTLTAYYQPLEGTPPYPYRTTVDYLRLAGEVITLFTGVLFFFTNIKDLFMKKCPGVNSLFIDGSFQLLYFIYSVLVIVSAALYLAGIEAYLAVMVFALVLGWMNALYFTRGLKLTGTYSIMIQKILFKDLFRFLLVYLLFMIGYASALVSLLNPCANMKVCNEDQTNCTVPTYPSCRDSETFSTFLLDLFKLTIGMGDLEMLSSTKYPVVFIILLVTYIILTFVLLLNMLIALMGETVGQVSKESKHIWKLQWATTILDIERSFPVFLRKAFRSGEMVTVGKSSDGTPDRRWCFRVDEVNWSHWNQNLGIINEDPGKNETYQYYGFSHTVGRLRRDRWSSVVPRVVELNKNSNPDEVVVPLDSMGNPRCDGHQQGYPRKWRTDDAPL", "assay": "UVB-evoked Ca++ transient in TRPV4-transfected HEK293T cells", "format": "cell-based", "parameters": "expressed in transfected cells; host or cells: HEK293T cells", "settings": "pre-exposure to 20 μM GSK205"}, "[3]": {"test_system": "IL-1β", "assay": "Keratinocyte IL-1β expression in UVB-exposed footpad after topical treatment", "format": "in vivo, mouse", "settings": "5 mM GSK205 topical", "protocol": "as §1\n(§2) Routine procedures were followed as described previously (Chen et al., 2009). Mice were perfused transcardially with 30 mL PBS, followed by 30 mL 4% paraformaldehyde. Tissues, including the L5 DRGs (bilateral), and footpad preparations, were dissected and post-fixed in 4% paraformaldehyde. Tissue blocks were further cryoprotected in 30% sucrose in PBS for 24-48 hours. For mouse TRPV4, keratin-specific antibodies, phospho-ERK, IL-6, IL-1β, CXCL5 and caspase-1, tissue was prepared as frozen blocks and subsequently sectioned on a cryostat. For CD68, CD15 (neutrophil elastase) and CD3, mouse skin was prepared by 2% PFA perfusion. […]"}, "[4]": {"test_system": "ET1", "assay": "ET1 secretion by non-stimulated 1° MK (ELISA)", "format": "cell-based, mouse"}, "[5]": {"test_system": "CXCL5", "assay": "Keratinocyte CXCL5 expression in UVB-exposed footpad after topical treatment", "format": "in vivo, mouse", "settings": "5 mM GSK205 topical", "protocol": "as §1, §2"}, "[6]": {"test_system": "IL-1β", "assay": "IL-1β secretion by UVB-exposed 1° MK (ELISA)", "format": "cell-based, mouse", "settings": "5 μM GSK205", "protocol": "Before UV irradiation, culture media was replaced with PBS. The cells were then irradiated at a dose of 50 mJ/cm^2 with UVB. 24 hours later, supernatants were assayed using IL-1β ELISA (R&D Systems, Minneapolis, Minn.)."}, "[7]": {"assay": "UVB permeation of paw-pad skin (sunscreen test)", "parameters": "species or system mouse", "settings": "topically applied; GSK205 5 mM", "protocol": "The UV LED was powered with 20 mA of current, resulting in 500 μW of optical power in a circular focal spot 1.5 mm in diameter, with 70% of the total flux in a 0.5 mm beam radius. The UV optical power transmitted through the sample was detected by a Hamamatsu 5127-66BR UV detector, and the output of the photodetector was measured using a Keithley 236 source measure unit. Next, the foot-pad epidermis of a mouse was measured for UV transmission by placing it on a quartz coverslip and exposure to the UV beam. The vehicle-control group was treated with the alcohol and glycerol solution only. Another control group consisted of a commercially-available SPF100 preparation sunscreen in form of a cream, which was applied similar to the vehicle-control. The data for the GSK205 and sunscreen was normalized to this control data."}},
  "note": "Entries after “also recorded” stand apart in the source; their conditions may differ.",
  "data": [
    {"compound": "CN(CCc1ccc(Nc2nc(-c3cccnc3)cs2)cc1)Cc1ccccc1", "note": "[GSK205]", "values": [
      {"measurement": "delay in thermal sensitivity after UVB", "setting": "[1]; 1 mM GSK205 topical, WT mice", "value": "~24", "unit": "h"},
      {"measurement": "thermally-evoked nocifensive behavior (Hargreaves' test) after UVB", "setting": "[1]; 5 mM GSK205 topical, 60′ and 10′ pre-exposure, WT mice", "value": "sustained attenuation of thermally-evoked nocifensive behavior; also recorded: significant attenuation of thermal allodynia"},
      {"measurement": "nocifensive behavior after UVB in Trpv4−/− mice vs. vehicle (off-target effects)", "setting": "[1]; 5 mM GSK205 topical, Trpv4−/− mice", "value": "did not show any inter-group differences; also recorded: lack of off-target effects"},
      {"measurement": "sensitivity to von Frey hair mechanical stimulation after UVB", "setting": "[1]; topical GSK205, WT mice", "value": "significantly reduced sensitivity"},
      {"measurement": "UVB-evoked Ca++ signal in TRPV4-transfected HEK293T cells", "setting": "[2]", "value": "blocked; also recorded: virtually eliminates"},
      {"measurement": "keratinocyte expression of IL-1β in UVB-exposed footpad", "setting": "[3]", "value": "failed to upregulate; also recorded: attenuates keratinocyte expression of IL-1β"},
      {"measurement": "ET1 secretion into supernatant (relative ET1 concentration)", "setting": "[4]", "value": "significant down-regulation"},
      {"measurement": "keratinocyte expression of CXCL5 in UVB-exposed footpad", "setting": "[5]", "value": "Comparably significant blocks; also recorded: attenuates keratinocyte expression of CXCL5"},
      {"measurement": "UVB-induced increase in IL-1β secretion", "setting": "[6]", "value": "completely eliminated; also recorded: prevention of increase in IL-1β secretion"},
      {"measurement": "UVB permeation of paw-pad skin vs. vehicle control", "setting": "[7]", "value": "equal UVB permeation; also recorded: absence of a change"}
    ]}
  ]
}
